Where a name gives a salt, the structure may show the parent alone. Read-outs that look alike come from different tables or passages of the source.

The results in this text go back to US12486253B2, “Therapeutics for the degradation of mutant BRAF” (C4 THERAPEUTICS, INC., priority 2021, dated 2025).

In this test the target is BRAF V600E (Homo sapiens, UniProt P15056, V600E). The test is described as follows: HiBiT cellular BRAF^V600E degradation assay. Type of test: cell-based. To be noted: for DC50: concentration at which 50% of total cellular BRAF^V600E is degraded; for Emax: read-out: HiBit 24 h Emax. (In general: The HiBiT peptide binds its large partner to form an active luciferase.)
Where [1] appears, read: A375.10 cells, 24 h, residual protein remaining in the cell.

Chain of BRAF V600E (P15056 whole entry V600E): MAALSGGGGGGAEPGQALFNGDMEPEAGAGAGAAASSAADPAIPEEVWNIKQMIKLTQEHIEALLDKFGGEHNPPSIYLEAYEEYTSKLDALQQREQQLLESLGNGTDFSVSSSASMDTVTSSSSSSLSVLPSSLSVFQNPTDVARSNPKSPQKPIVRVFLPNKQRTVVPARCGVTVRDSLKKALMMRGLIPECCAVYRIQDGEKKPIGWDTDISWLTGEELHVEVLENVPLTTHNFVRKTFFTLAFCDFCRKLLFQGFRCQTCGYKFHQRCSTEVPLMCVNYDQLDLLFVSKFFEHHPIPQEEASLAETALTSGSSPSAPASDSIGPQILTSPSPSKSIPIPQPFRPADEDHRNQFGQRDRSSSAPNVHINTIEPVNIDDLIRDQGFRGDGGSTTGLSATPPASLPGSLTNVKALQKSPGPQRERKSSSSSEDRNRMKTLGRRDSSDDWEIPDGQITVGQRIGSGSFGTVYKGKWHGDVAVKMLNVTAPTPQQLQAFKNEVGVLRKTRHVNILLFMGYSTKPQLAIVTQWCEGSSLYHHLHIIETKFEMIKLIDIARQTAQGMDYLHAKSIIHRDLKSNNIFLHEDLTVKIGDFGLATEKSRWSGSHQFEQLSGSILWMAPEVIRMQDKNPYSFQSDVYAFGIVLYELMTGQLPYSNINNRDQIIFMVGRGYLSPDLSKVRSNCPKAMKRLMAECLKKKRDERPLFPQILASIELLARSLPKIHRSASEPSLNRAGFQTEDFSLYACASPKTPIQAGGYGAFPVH

The term DC50 denotes the midpoint of the concentration-degradation curve. A lower DC50 goes with degradation at low concentration. What is called Emax is the greatest response seen or fitted, relative to the assay's reference. As to `CCN(C)S(=O)(=O)Nc1ccc(F)c(Oc2ccc3ncn(-c4cnc(N5CCN(C(=O)CN6CCC(c7ccc(N[C@@H]8CCC(=O)NC8=O)cc7F)CC6)CC5)nc4)c(=O)c3c2)c1C#N` [Example 95, 6-[2-cyano-3-[[ethyl(methyl)sulfamoyl]amino]-6-fluorophenoxy]-3-[2-[4-[2-[4-[4-[[(3R)-2,6-dioxopiperidin-3-yl]amino]-2-fluorophenyl]piperidin-1-yl]acetyl]piperazin-1-yl]pyrimidin-5-yl]-4-oxoquinazoline], the maximal effect (Emax) turned out to be 10.4%. Moreover, where the note is “A375.10 cells, 24 h”, it took 10.7 nM to reach half-maximal degradation (DC50).

As to `N#Cc1c(NS(=O)(=O)N2CCCC2)ccc(F)c1Oc1ccc2ncn(-c3cnc(N4CCN(C(=O)CN5CCC(c6ccc(N[C@H]7CCC(=O)NC7=O)cc6F)CC5)CC4)nc3)c(=O)c2c1` [Example 107, N-[2-cyano-3-[3-[2-[4-[2-[4-[4-[[(3S)-2,6-dioxopiperidin-3-yl]amino]-2-fluorophenyl]piperidin-1-yl]acetyl]piperazin-1-yl]pyrimidin-5-yl]-4-oxoquinazolin-6-yl]oxy-4-fluorophenyl]pyrrolidine-1-sulfonamide], the maximum response (Emax) is 9.8%. For the same compound, where the note is “A375.10 cells, 24 h”, half-maximal degradation (DC50) was put at 12.9 nM.

Consider `CN(C1CC1)S(=O)(=O)Nc1ccc(F)c(Oc2ccc3ncn(-c4cnc(N5CCN(C(=O)CN6CCC(c7ccc(N[C@H]8CCC(=O)NC8=O)cc7F)CC6)CC5)nc4)c(=O)c3c2)c1C#N` [Example 127, 6-[2-cyano-3-[[cyclopropyl(methyl)sulfamoyl]amino]-6-fluorophenoxy]-3-[2-[4-[2-[4-[4-[[(3S)-2,6-dioxopiperidin-3-yl]amino]-2-fluorophenyl]piperidin-1-yl]acetyl]piperazin-1-yl]pyrimidin-5-yl]-4-oxoquinazoline], for which it took 20.7 nM to reach half-maximal degradation (A375.10 cells, 24 h) (DC50). Moreover, under setting [1], the Emax stood at 8.95%.

`CCN(C)S(=O)(=O)Nc1cccc(Oc2ccc3ncn(C4CC5(CCN(C(=O)CN6CCC(c7ccc(NC8CCC(=O)NC8=O)cc7F)CC6)CC5)C4)c(=O)c3c2)c1C#N` (stereo not drawn) [Example 26, 6-[2-cyano-3-[[ethyl(methyl)sulfamoyl]amino]phenoxy]-3-[7-[2-[4-[4-[(2,6-dioxopiperidin-3-yl)amino]-2-fluorophenyl]piperidin-1-yl]acetyl]-7-azaspiro[3.5]nonan-2-yl]-4-oxoquinazoline] gave a half-maximal degradation concentration (DC50) (A375.10 cells, 24 h) of 8.49 nM. Also, under setting [1], the maximal response (Emax) came out at 10%.

In the case of `CCN(C)S(=O)(=O)Nc1ccc(F)c(Oc2ccc3ncn([C@H]4COC5(CCN(C(=O)CN6CCC(c7ccc(C8CCC(=O)NC8=O)cc7F)C(F)(F)C6)CC5)C4)c(=O)c3c2)c1C#N` (stereo partly drawn) [Example 65, (3R)-3-[6-[2-cyano-3-[[ethyl(methyl)sulfamoyl]amino]-6-fluorophenoxy]-4-oxoquinazolin-3-yl]-8-[2-[4-[4-(2,6-dioxopiperidin-3-yl)-2-fluorophenyl]-3,3-difluoropiperidin-1-yl]acetyl]-1-oxa-8-azaspiro[4.5]decane], the DC50 (A375.10 cells, 24 h) turned out to be 9.48 nM. Also, the Emax under setting [1] is 15.4%.

`N#Cc1c(NS(=O)(=O)N2C[C@@H](F)[C@H](F)C2)ccc(F)c1Oc1ccc2ncn(-c3cnc(N4CCN(C(=O)CN5CCC(c6ccc(N[C@H]7CCC(=O)NC7=O)cc6F)CC5)CC4)nc3)c(=O)c2c1` [Example 129, (3R,4R)—N-[2-cyano-3-[3-[2-[4-[2-[4-[4-[[(3S)-2,6-dioxopiperidin-3-yl]amino]-2-fluorophenyl]piperidin-1-yl]acetyl]piperazin-1-yl]pyrimidin-5-yl]-4-oxoquinazolin-6-yl]oxy-4-fluorophenyl]-3,4-difluoropyrrolidine-1-sulfonamide] had a 50% degradation concentration (DC50) (A375.10 cells, 24 h) of 29.6 nM. In addition, the Emax under setting [1] was 10.3%.

For the compound `N#Cc1c(NS(=O)(=O)N2CC[C@@H](F)C2)ccc(F)c1Oc1ccc2ncn(-c3cnc(N4CCN(C(=O)CN5CCC(c6ccc(N[C@@H]7CCC(=O)NC7=O)cc6F)CC5)CC4)nc3)c(=O)c2c1` [Example 124, (3R)—N-[2-cyano-3-[3-[2-[4-[2-[4-[4-[[(3R)-2,6-dioxopiperidin-3-yl]amino]-2-fluorophenyl]piperidin-1-yl]acetyl]piperazin-1-yl]pyrimidin-5-yl]-4-oxoquinazolin-6-yl]oxy-4-fluorophenyl]-3-fluoropyrrolidine-1-sulfonamide], for the setting “A375.10 cells, 24 h”, half-maximal degradation (DC50) was put at 15.7 nM. Besides, the Emax under setting [1] came to 12%.

For `CCN(C)S(=O)(=O)Nc1ccc(F)c(Oc2ccc3ncn([C@H]4COC5(CCN(C(=O)CN6CCC(c7ccc(C8CCC(=O)NC8=O)cc7F)CC6)CC5)C4)c(=O)c3c2)c1C#N` (stereo partly drawn) [Example 46, (3R)-3-[6-[2-cyano-3-[[ethyl(methyl)sulfamoyl]amino]-6-fluorophenoxy]-4-oxoquinazolin-3-yl]-8-[2-[4-[4-(2,6-dioxopiperidin-3-yl)-2-fluorophenyl]piperidin-1-yl]acetyl]-1-oxa-8-azaspiro[4.5]decane], for the setting “A375.10 cells, 24 h”, the half-maximal degradation concentration (DC50) worked out at 29.9 nM. Besides, the maximal response (Emax) under setting [1] was 13.4%.

As to `CCN(C)S(=O)(=O)Nc1ccc(F)c(Oc2ccc3ncn(-c4cnc(N5CCN(C(=O)CN6CCC(c7ccc(N[C@H]8CCC(=O)NC8=O)cc7F)CC6)CC5)nc4)c(=O)c3c2OC)c1C#N` [Example 100, 6-[2-cyano-3-[[ethyl(methyl)sulfamoyl]amino]-6-fluorophenoxy]-3-[2-[4-[2-[4-[4-[[(3S)-2,6-dioxopiperidin-3-yl]amino]-2-fluorophenyl]piperidin-1-yl]acetyl]piperazin-1-yl]pyrimidin-5-yl]-5-methoxy-4-oxoquinazoline], it took 16.4 nM to reach half-maximal degradation (A375.10 cells, 24 h) (DC50). Besides, the Emax under setting [1] was determined as 8.4%.

On to `CCN(C)S(=O)(=O)Nc1ccc(F)c(Oc2ccc3ncc(C4COC5(CCN(C(=O)CN6CCC(c7ccc(NC8CCC(=O)NC8=O)cc7F)CC6)CC5)C4)nc3c2)c1C#N` (stereo not drawn) [Example 221, 3-[7-[2-cyano-3-[[ethyl(methyl)sulfamoyl]amino]-6-fluorophenoxy]quinoxalin-2-yl]-8-[2-[4-[4-[(2,6-dioxopiperidin-3-yl)amino]-2-fluorophenyl]piperidin-1-yl]acetyl]-1-oxa-8-azaspiro[4.5]decane], for which it took 30.5 nM to reach half-maximal degradation (A375.10 cells, 24 h) (DC50). In addition, under setting [1], the maximal effect (Emax) turned out to be 10.3%.

`CCN(C)S(=O)(=O)Nc1ccc(F)c(Oc2ccc3ncn(CCC4CCN(CC(=O)N5CCC(c6ccc(NC7CCC(=O)NC7=O)cc6)CC5)CC4)c(=O)c3c2)c1C#N` (stereo not drawn) [Example A2, 6-[2-cyano-3-[[ethyl(methyl)sulfamoyl]amino]-6-fluoro-phenoxy]-3-[2-[1-[2-[4-[4-[(2,6-dioxo-3-piperidyl)amino]phenyl]-1-piperidyl]-2-oxo-ethyl]-4-piperidyl]ethyl]-4-oxo-quinazoline, 2,2,2-trifluoroacetic acid salt] registered a 50% degradation concentration (DC50) (A375.10 cells, 24 h) of 165 nM. Moreover, the maximum response (Emax) under setting [1] was determined as 26%.

With `CN(C1CC1)S(=O)(=O)Nc1ccc(F)c(Oc2ccc3ncn([C@H]4COC5(CCN(C(=O)CC6(O)CCN(c7cc8c(cc7F)c(N7CCC(=O)NC7=O)nn8C)CC6)CC5)C4)c(=O)c3c2)c1C#N` [Example 197, (3R)-3-[6-[2-cyano-3-[[cyclopropyl(methyl)sulfamoyl]amino]-6-fluorophenoxy]-4-oxoquinazolin-3-yl]-8-[2-[1-[3-(2,4-dioxo-1,3-diazinan-1-yl)-5-fluoro-1-methylindazol-6-yl]-4-hydroxypiperidin-4-yl]acetyl]-1-oxa-8-azaspiro[4.5]decane], the 50% degradation concentration (DC50) (A375.10 cells, 24 h) was 25.7 nM. Also, under setting [1], the Emax came out at 27.8%.

For `CCN(C)S(=O)(=O)Nc1ccc(F)c(Oc2ccc3ncn(-c4ccc(N5CCN(C(=O)CN6CCC(c7c(F)cc(NC8CCC(=O)NC8=O)cc7OC)CC6)CC5)nc4)c(=O)c3c2)c1C#N` (stereo not drawn) [Example 87, 6-[2-cyano-3-[[ethyl(methyl)sulfamoyl]amino]-6-fluorophenoxy]-3-[6-[4-[2-[4-[4-[(2,6-dioxopiperidin-3-yl)amino]-2-fluoro-6-methoxyphenyl]piperidin-1-yl]acetyl]piperazin-1-yl]pyridin-3-yl]-4-oxoquinazoline], under “A375.10 cells, 24 h”, half-maximal degradation (DC50) was put at 30.3 nM. The Emax under setting [1] was 10.1%.

In turn, `CCN(C)S(=O)(=O)Nc1ccc(F)c(Oc2ccc3ncn([C@H]4COC5(CCN(C(=O)CN6CCC(c7ccc(NC8CCC(=O)NC8=O)cc7F)CC6)CC5)C4)c(=O)c3c2Cl)c1C#N` (single isomer, unassigned) [Example 77] registered a 50% degradation concentration (DC50) (A375.10 cells, 24 h) of 31.8 nM. Under setting [1], the maximal effect (Emax) was found to be 9.51%.

Compound `Cn1nc(C2CCC(=O)NC2=O)c2ccc(C3CCN(CC(=O)N4CCC5(CC4)C[C@@H](n4cnc6ccc(Oc7c(F)ccc(NS(=O)(=O)C8CCCC8)c7C#N)cc6c4=O)CO5)CC3)cc21` (stereo partly drawn) [Example 167, N-[2-cyano-3-[3-[(3R)-8-[2-[4-[3-(2,6-dioxopiperidin-3-yl)-1-methylindazol-6-yl]piperidin-1-yl]acetyl]-1-oxa-8-azaspiro[4.5]decan-3-yl]-4-oxoquinazolin-6-yl]oxy-4-fluorophenyl]cyclopentanesulfonamide] displayed a half-maximal degradation concentration (DC50) (A375.10 cells, 24 h) of 42.6 nM. Further, the maximum response (Emax) under setting [1] was determined as 16.5%.

`CCN(C)S(=O)(=O)Nc1ccc(F)c(Oc2ccc3ncc(N4CCC5(CCN(C(=O)CN6CCC(c7ccc(NC8CCC(=O)NC8=O)cc7F)CC6)CC5)C4)nc3c2)c1C#N` (stereo not drawn) [Example 219, 7-[2-cyano-3-[[ethyl(methyl)sulfamoyl]amino]-6-fluorophenoxy]-2-[8-[2-[4-[4-[(2,6-dioxopiperidin-3-yl)amino]-2-fluorophenyl]piperidin-1-yl]acetyl]-2,8-diazaspiro[4.5]decan-2-yl]quinoxaline]: half-maximal degradation (A375.10 cells, 24 h) (DC50) was put at 21.7 nM. Moreover, under setting [1], the Emax was 13.9%.

The compound `CCN(C)S(=O)(=O)Nc1ccc(F)c(Oc2ccc3ncn([C@H]4COC5(CCN(C(=O)CN6CCC(c7ccc(NC8CCC(=O)NC8=O)cc7F)CC6)CC5)C4)c(=O)c3c2Br)c1C#N` (single isomer, unassigned) [Example 73] returned a 50% degradation concentration (DC50) (A375.10 cells, 24 h) of 30.7 nM. The maximum response (Emax) under setting [1] came out at 12%.

For `CCN(C)S(=O)(=O)Nc1ccc(F)c(Oc2ccc3ncn([C@H]4COC5(CCN(C(=O)CN6CCCC(c7ccc(NC8CCC(=O)NC8=O)cc7F)CC6)CC5)C4)c(=O)c3c2)c1C#N` (stereo partly drawn) [Example 76, (3R)-3-[6-[2-cyano-3-[[ethyl(methyl)sulfamoyl]amino]-6-fluorophenoxy]-4-oxoquinazolin-3-yl]-8-[2-[4-[4-[(2,6-dioxopiperidin-3-yl)amino]-2-fluorophenyl]azepan-1-yl]acetyl]-1-oxa-8-azaspiro[4.5]decane], it took 50.1 nM to reach half-maximal degradation (A375.10 cells, 24 h) (DC50). Further, under setting [1], the maximal effect (Emax) amounted to 13.2%.
